Among the data in patent US20240109917A1 (ACTELION PHARMACEUTICALS LTD, priority 2020, published 2024) are IC50 values, retold here.

In assay [1] the target is His6-TEV-PDGFRβ (557-1016) (Homo sapiens (Human), UniProt P09619). Put plainly: PDGFRβ HTRF Assay. The format is biochemical. The conditions noted are these: read-out: PDGFR HTRF IC50. Put shortly:
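Human PDGFRβ (557-1016) pre-incubated with compound for 30 min at RT in pH 7.5 HEPES/MgCl2/EGTA/Brij-35/DTT buffer. Reaction started with ATP and TK-biotin peptide, run 3 h at RT, then quenched with EDTA-containing Eu-cryptate antibody/streptavidin-XL665. HTRF 665/620 nm ratio read after 60 min; percent inhibition relative to DMSO and 10 μM imatinib controls.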
For orientation: Time-resolved FRET reads energy transfer from a long-lived donor to a nearby acceptor.

In assay [2] the target is Tb-labeled inactive PDGFRβ (Homo sapiens (Human), UniProt P09619). As to the kind of experiment: PDGFRβ LanthaScreen Assay. The conditions noted are these: read-out: PDGFR Lantha IC50. The format is binding.
A further assay addresses VEGFR2, unphosphorylated (Homo sapiens (Human), UniProt P35968). Put plainly: VEGFR ADP GLO Assay. In kind it is biochemical. A general note: ADP-Glo turns the ADP formed in a reaction into a luminescent signal.

Structures are written as SMILES. Some results are limits rather than exact numbers.

Sequence of Tb-labeled inactive PDGFRβ (P09619 33-1106): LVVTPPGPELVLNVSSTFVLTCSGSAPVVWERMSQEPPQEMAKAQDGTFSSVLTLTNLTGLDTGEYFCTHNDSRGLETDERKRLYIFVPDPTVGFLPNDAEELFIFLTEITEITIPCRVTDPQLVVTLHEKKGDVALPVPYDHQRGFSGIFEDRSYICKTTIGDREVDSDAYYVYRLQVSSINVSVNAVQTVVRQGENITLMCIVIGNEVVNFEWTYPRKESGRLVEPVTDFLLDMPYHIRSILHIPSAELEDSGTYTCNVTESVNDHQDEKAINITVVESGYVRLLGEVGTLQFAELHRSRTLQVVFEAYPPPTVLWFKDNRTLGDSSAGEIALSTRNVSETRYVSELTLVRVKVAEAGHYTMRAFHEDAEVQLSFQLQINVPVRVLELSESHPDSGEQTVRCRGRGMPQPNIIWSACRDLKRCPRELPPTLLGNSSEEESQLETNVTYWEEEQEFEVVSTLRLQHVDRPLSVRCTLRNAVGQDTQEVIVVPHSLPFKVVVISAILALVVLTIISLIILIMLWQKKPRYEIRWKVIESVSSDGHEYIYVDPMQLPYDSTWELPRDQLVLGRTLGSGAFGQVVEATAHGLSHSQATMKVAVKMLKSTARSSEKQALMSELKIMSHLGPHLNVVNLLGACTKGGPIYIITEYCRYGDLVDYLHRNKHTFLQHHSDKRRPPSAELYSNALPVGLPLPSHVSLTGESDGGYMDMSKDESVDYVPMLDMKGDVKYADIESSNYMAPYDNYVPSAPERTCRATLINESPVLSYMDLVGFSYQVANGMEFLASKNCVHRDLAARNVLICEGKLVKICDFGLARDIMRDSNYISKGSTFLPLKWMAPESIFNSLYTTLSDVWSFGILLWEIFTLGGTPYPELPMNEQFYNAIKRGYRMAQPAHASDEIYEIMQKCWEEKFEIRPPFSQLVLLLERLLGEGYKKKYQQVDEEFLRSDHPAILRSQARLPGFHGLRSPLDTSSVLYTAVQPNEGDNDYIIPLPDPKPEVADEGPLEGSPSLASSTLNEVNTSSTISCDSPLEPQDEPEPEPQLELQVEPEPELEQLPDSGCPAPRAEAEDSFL
Sequence of His6-TEV-PDGFRβ (557-1016) (P09619 557-1016): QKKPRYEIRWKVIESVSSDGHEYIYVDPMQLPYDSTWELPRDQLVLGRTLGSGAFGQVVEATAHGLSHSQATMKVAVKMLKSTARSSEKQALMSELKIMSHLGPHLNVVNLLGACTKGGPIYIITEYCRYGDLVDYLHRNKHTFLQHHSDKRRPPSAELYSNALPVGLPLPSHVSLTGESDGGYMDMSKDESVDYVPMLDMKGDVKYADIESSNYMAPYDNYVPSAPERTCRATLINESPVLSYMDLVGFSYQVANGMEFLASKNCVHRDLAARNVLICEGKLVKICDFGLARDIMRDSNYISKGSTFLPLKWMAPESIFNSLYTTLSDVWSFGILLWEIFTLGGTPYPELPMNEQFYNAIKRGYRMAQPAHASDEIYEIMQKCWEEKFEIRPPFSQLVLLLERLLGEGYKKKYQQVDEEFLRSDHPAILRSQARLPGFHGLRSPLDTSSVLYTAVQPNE
Sequence of VEGFR2, unphosphorylated (P35968 20-1356): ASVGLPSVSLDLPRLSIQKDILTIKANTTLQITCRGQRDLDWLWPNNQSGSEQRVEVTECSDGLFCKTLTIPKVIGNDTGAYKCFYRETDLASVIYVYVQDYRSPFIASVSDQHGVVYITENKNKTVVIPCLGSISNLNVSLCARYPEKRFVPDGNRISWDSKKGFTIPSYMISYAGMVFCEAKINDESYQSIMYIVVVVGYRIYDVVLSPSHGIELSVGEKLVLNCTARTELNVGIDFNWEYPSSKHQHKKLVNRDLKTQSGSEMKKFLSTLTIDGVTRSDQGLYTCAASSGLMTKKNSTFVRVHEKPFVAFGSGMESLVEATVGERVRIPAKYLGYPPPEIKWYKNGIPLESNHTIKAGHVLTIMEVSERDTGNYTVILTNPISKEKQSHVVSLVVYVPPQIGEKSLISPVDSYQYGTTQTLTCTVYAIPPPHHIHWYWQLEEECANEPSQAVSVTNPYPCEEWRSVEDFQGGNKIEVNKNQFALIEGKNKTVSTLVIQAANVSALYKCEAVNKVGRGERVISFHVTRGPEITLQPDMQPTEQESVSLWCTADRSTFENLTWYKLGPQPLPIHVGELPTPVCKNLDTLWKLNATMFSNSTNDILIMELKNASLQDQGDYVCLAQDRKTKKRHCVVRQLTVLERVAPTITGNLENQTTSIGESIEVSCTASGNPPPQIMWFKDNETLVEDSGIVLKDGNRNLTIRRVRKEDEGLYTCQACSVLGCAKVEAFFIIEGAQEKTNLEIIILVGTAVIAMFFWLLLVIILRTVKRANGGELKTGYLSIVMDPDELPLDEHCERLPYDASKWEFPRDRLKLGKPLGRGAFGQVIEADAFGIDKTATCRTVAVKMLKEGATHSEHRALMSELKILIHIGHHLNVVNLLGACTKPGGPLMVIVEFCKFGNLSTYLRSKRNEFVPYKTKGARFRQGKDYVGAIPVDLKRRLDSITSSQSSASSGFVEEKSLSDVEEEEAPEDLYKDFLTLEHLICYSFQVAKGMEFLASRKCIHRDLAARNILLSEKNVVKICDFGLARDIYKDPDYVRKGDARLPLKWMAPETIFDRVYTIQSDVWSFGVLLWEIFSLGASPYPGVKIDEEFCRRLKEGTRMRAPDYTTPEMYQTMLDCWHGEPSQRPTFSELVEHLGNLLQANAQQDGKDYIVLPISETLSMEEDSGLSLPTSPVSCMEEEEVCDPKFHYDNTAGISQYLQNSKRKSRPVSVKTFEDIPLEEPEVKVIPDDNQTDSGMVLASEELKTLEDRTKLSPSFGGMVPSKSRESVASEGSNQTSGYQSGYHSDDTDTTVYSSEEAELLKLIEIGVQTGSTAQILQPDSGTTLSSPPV

As usually defined, the IC50 is the concentration that gives 50% inhibition. Regarding `COCCn1cc(-c2cn3ncc(C(=O)Nc4cc(NC(=O)C5CN(C(C)C)C5)cnc4C)c3s2)cn1` [Example 342, N-(5-(1-isopropylazetidine-3-carboxamido)-2-methylpyridin-3-yl)-2-(1-(2-methoxyethyl)-1H-pyrazol-4-yl)pyrazolo[5,1-b]thiazole-7-carboxamide], the IC50 was 0.6 nM in assay [1]; 15.9 nM in assay [2]; greater than 7.5 µM at VEGFR2, unphosphorylated.

As for `COCCn1cc(-c2cn3ncc(C(=O)Nc4cc(NC(=O)[C@@H]5CCCN5C(C)C)cnc4C)c3s2)cn1` [Example 343, (S)—N-(5-(1-isopropylpyrrolidine-2-carboxamido)-2-methylpyridin-3-yl)-2-(1-(2-methoxyethyl)-1H-pyrazol-4-yl)pyrazolo[5,1-b]thiazole-7-carboxamide], the IC50 in assay [1] was 3.5 nM; in assay [2] it was 84.8 nM; on VEGFR2, unphosphorylated, greater than 7.5 µM.

As for `COCCn1cc(-c2cn3ncc(C(=O)Nc4cc(NC(=O)[C@H]5CCCN5C(C)C)cnc4C)c3s2)cn1` [Example 344, (R)—N-(5-(1-isopropylpyrrolidine-2-carboxamido)-2-methylpyridin-3-yl)-2-(1-(2-methoxyethyl)-1H-pyrazol-4-yl)pyrazolo[5,1-b]thiazole-7-carboxamide], the half-inhibitory concentration (IC50) in assay [1] was 4.3 nM; in assay [2] it was 67.5 nM; at VEGFR2, unphosphorylated, greater than 7.5 µM.

As for `COCCn1cc(-c2cn3ncc(C(=O)Nc4cc(NC(=O)C5CCN(C(C)C)C5)cnc4C)c3s2)cn1` (stereo not drawn) [Example 345, N-(5-(1-isopropylpyrrolidine-3-carboxamido)-2-methylpyridin-3-yl)-2-(1-(2-methoxyethyl)-1H-pyrazol-4-yl)pyrazolo[5,1-b]thiazole-7-carboxamide], the IC50 was 1.3 nM in assay [1]; 56.9 nM in assay [2]; greater than 7.5 µM against VEGFR2, unphosphorylated.

Take `Cc1ncc(NC(=O)[C@@H]2CCCN2C(C)C)cc1NC(=O)c1cnn2cc(-c3cnn4c3OCCC4)sc12` [Example 346, (S)-2-(6,7-dihydro-5H-pyrazolo[5,1-b][1,3]oxazin-3-yl)-N-(5-(1-isopropylpyrrolidine-2-carboxamido)-2-methylpyridin-3-yl)pyrazolo[5,1-b]thiazole-7-carboxamide]: the IC50 was 0.5 nM in assay [1]; 6.5 nM in assay [2]; greater than 7.5 µM on VEGFR2, unphosphorylated.

With `Cc1ncc(NC(=O)[C@H]2CCCN2C(C)C)cc1NC(=O)c1cnn2cc(-c3cnn4c3OCCC4)sc12` [Example 347, (R)-2-(6,7-dihydro-5H-pyrazolo[5,1-b][1,3]oxazin-3-yl)-N-(5-(1-isopropylpyrrolidine-2-carboxamido)-2-methylpyridin-3-yl)pyrazolo[5,1-b]thiazole-7-carboxamide], the IC50 in assay [1] is 0.5 nM; in assay [2] it was 6 nM; on VEGFR2, unphosphorylated it was greater than 7.5 µM.

For the compound `Cc1ncc(NC(=O)C2CN(C(C)C)C2)cc1NC(=O)c1cnn2cc(-c3cnn4c3OCCC4)sc12` [Example 348, 2-(6,7-dihydro-5H-pyrazolo[5,1-b][1,3]oxazin-3-yl)-N-(5-(1-isopropylazetidine-3-carboxamido)-2-methylpyridin-3-yl)pyrazolo[5,1-b]thiazole-7-carboxamide], the IC50 is 0.4 nM in assay [1]; 4 nM in assay [2]; greater than 7.5 µM on VEGFR2, unphosphorylated.

Regarding `Cc1ncc(NC(=O)[C@@H]2CCCN2C)cc1NC(=O)c1cnn2cc(-c3cnn4c3OCCC4)sc12` [Example 349, (S)-2-(6,7-dihydro-5H-pyrazolo[5,1-b][1,3]oxazin-3-yl)-N-(2-methyl-5-(1-methylpyrrolidine-2-carboxamido)pyridin-3-yl)pyrazolo[5,1-b]thiazole-7-carboxamide], the IC50 in assay [1] was 0.6 nM; in assay [2] it was 8.7 nM; against VEGFR2, unphosphorylated, greater than 7.5 µM.

`Cc1ncc(NC(=O)C2CCN(C(C)C)C2)cc1NC(=O)c1cnn2cc(-c3cnn4c3OCCC4)sc12` (stereo not drawn) [Example 350, 2-(6,7-dihydro-5H-pyrazolo[5,1-b][1,3]oxazin-3-yl)-N-(5-(1-isopropylpyrrolidine-3-carboxamido)-2-methylpyridin-3-yl)pyrazolo[5,1-b]thiazole-7-carboxamide]: the IC50 was determined as 0.3 nM in assay [1]; 4.1 nM in assay [2]; 6.35 µM against VEGFR2, unphosphorylated.

As for `Cc1ncc(NC(=O)C[C@H]2CCCN2C(C)C)cc1NC(=O)c1cnn2cc(-c3cnn4c3OCCC4)sc12` [Example 351, (R)-2-(6,7-dihydro-5H-pyrazolo[5,1-b][1,3]oxazin-3-yl)-N-(5-(2-(1-isopropylpyrrolidin-2-yl)acetamido)-2-methylpyridin-3-yl)pyrazolo[5,1-b]thiazole-7-carboxamide], the IC50 in assay [1] was 0.3 nM; in assay [2], 3.1 nM; against VEGFR2, unphosphorylated, greater than 7.5 µM.

On to `Cc1ncc(NC(=O)CN2CCC[C@@H]2C)cc1NC(=O)c1cnn2cc(-c3ccnc(N4CCOCC4)c3)sc12` [Example 352, (S)—N-(2-methyl-5-(2-(2-methylpyrrolidin-1-yl)acetamido)pyridin-3-yl)-2-(2-morpholinopyridin-4-yl)pyrazolo[5,1-b]thiazole-7-carboxamide], for which the IC50 was 0.3 nM in assay [1]; 4.7 nM in assay [2]; greater than 7.5 µM against VEGFR2, unphosphorylated.

Consider `Cc1ncc(NC(=O)CN2CCC23CCC3)cc1NC(=O)c1cnn2cc(-c3ccnc(N4CCOCC4)c3)sc12` [Example 353, N-(5-(2-(1-azaspiro[3.3]heptan-1-yl)acetamido)-2-methylpyridin-3-yl)-2-(2-morpholinopyridin-4-yl)pyrazolo[5,1-b]thiazole-7-carboxamide], for which the IC50 in assay [1] is 0.2 nM; in assay [2], 1.4 nM; on VEGFR2, unphosphorylated, greater than 7.5 µM.

Turning to `Cc1ncc(NC(=O)C2CN(C(C)C)C2)cc1NC(=O)c1cnn2cc(-c3cn(C)nc3C)sc12` [Example 354, 2-(1,3-dimethyl-1H-pyrazol-4-yl)-N-(5-(1-isopropylazetidine-3-carboxamido)-2-methylpyridin-3-yl)pyrazolo[5,1-b]thiazole-7-carboxamide], the IC50 is 0.2 nM in assay [1]; 4.3 nM in assay [2]; greater than 7.5 µM against VEGFR2, unphosphorylated.

In the case of `Cc1ncc(NC(=O)C2CCN(C(C)C)C2)cc1NC(=O)c1cnn2cc(-c3cn(C)nc3C)sc12` (stereo not drawn) [Example 355, 2-(1,3-dimethyl-1H-pyrazol-4-yl)-N-(5-(1-isopropylpyrrolidine-3-carboxamido)-2-methylpyridin-3-yl)pyrazolo[5,1-b]thiazole-7-carboxamide], the IC50 was 0.4 nM in assay [1]; 11.3 nM in assay [2]; greater than 7.5 µM on VEGFR2, unphosphorylated.

Regarding `Cc1ncc(NC(=O)C2CCN(C(C)C)C2)cc1NC(=O)c1cnn2cc(-c3cnn(C)c3C)sc12` (stereo not drawn) [Example 356, 2-(1,5-dimethyl-1H-pyrazol-4-yl)-N-(5-(1-isopropylpyrrolidine-3-carboxamido)-2-methylpyridin-3-yl)pyrazolo[5,1-b]thiazole-7-carboxamide], the IC50 in assay [1] was 0.5 nM; in assay [2], 17.9 nM; on VEGFR2, unphosphorylated, greater than 7.5 µM.

Consider `Cc1ncc(NC(=O)C2CN(C(C)C)C2)cc1NC(=O)c1cnn2cc(-c3cnn(C)c3C)sc12` [Example 357, 2-(1,5-dimethyl-1H-pyrazol-4-yl)-N-(5-(1-isopropylazetidine-3-carboxamido)-2-methylpyridin-3-yl)pyrazolo[5,1-b]thiazole-7-carboxamide], for which the IC50 in assay [1] is 0.2 nM; in assay [2], 4.5 nM; against VEGFR2, unphosphorylated, greater than 7.5 µM.

Regarding `Cc1ncc(NS(=O)(=O)CCN2CC3CCC2CC3)cc1NC(=O)c1cnn2cc(-c3cnn(C)c3)sc12` [Example 358, N-(5-((2-(2-azabicyclo[2.2.2]octan-2-yl)ethyl)sulfonamido)-2-methylpyridin-3-yl)-2-(1-methyl-1H-pyrazol-4-yl)pyrazolo[5,1-b]thiazole-7-carboxamide], the IC50 in assay [1] was 86.6 nM; in assay [2], 1840 nM; against VEGFR2, unphosphorylated, greater than 7.5 µM.

Take `Cc1ncc(S(=O)(=O)NCCN2CCCC2(C)C)cc1NC(=O)c1cnn2cc(-c3cnn(C)c3)sc12` [Example 359, N-(5-(N-(2-(2,2-dimethylpyrrolidin-1-yl)ethyl)sulfamoyl)-2-methylpyridin-3-yl)-2-(1-methyl-1H-pyrazol-4-yl)pyrazolo[5,1-b]thiazole-7-carboxamide]: the IC50 in assay [1] was 16.4 nM; in assay [2], 451 nM; at VEGFR2, unphosphorylated, greater than 7.5 µM.

Consider `COCCCc1cn2ncc(C(=O)Nc3cc(C(=O)NCCN4CCCC4(C)C)cnc3C)c2s1` [Example 360, N-(5-((2-(2,2-dimethylpyrrolidin-1-yl)ethyl)carbamoyl)-2-methylpyridin-3-yl)-2-(3-methoxypropyl)pyrazolo[5,1-b]thiazole-7-carboxamide], for which the IC50 was 4.9 nM in assay [1]; 100 nM in assay [2]; greater than 7.5 µM at VEGFR2, unphosphorylated.

As for `COC/C=C/c1cn2ncc(C(=O)Nc3cc(C(=O)NCCN4CCCC4(C)C)cnc3C)c2s1` [Example 361, (E)-N-(5-((2-(2,2-dimethylpyrrolidin-1-yl)ethyl)carbamoyl)-2-methylpyridin-3-yl)-2-(3-methoxyprop-1-en-1-yl)pyrazolo[5,1-b]thiazole-7-carboxamide], the IC50 is 1.3 nM in assay [1]; 19 nM in assay [2]; greater than 7.5 µM against VEGFR2, unphosphorylated.

For the compound `Cc1ncc(C(=O)NCCN2CCCC2(C)C)cc1NC(=O)c1cnn2cc(-c3cnn(Cc4cc(OCc5ccccc5)no4)c3)sc12` [Example 362, 2-(1-((3-(benzyloxy)isoxazol-5-yl)methyl)-1H-pyrazol-4-yl)-N-(5-((2-(2,2-dimethylpyrrolidin-1-yl)ethyl)carbamoyl)-2-methylpyridin-3-yl)pyrazolo[5,1-b]thiazole-7-carboxamide], the IC50 in assay [1] was 0.5 nM; in assay [2], 4.5 nM; against VEGFR2, unphosphorylated it was greater than 2.5 µM.
